Values quoted from earlier work as cited in US7799530B2, “Genetic polymorphisms associated with cardiovascular disorders and drug response, methods of detection and uses thereof” (Celera Corporation, priority 2005, dated 2010).

What was measured:
[1] = tested on: acute coronary events and LDL-C in subjects with average cholesterol levels; conditions: AFCAPS/TexCAPS; cited from earlier work
rhabdomyolysis = conditions: in vivo; cited from earlier work

CC[C@H](C)C(=O)O[C@H]1C[C@@H](C)C=C2C=C[C@H](C)[C@H](CC[C@@H]3C[C@@H](O)CC(=O)O3)[C@H]21 [lovastatin]
LDL-C reduction (average) [1]: 25%
decrease in events [1]: 37%

COCc1c(C(C)C)nc(C(C)C)c(/C=C/[C@@H](O)C[C@@H](O)CC(=O)O)c1-c1ccc(F)cc1 [cerevastatin]
rhabdomyolysis-related deaths (rhabdomyolysis): relatively high level of rhabdomyolysis-related deaths
